No end group written: not given here. *: point of attachment. Palmitoyl = CCCCCCCCCCCCCCCC(=O)*
Legend:
[1] = tested on: OT1 splenocytes (TCR transgenic T cells specific for SIINFEKL); test: Cross-presentation of OVA by DC to MHC class I restricted OT-1 T cells (3H-thymidine uptake); format: cell-based, mouse; conditions: whole OVA protein, 25 uM lipid, 37° C., versus OVA without cationic lipid
Description: FIG. 3: R-DOTAP enhancement of antigen processing results in enhancement of cross-presentation to MHC class I restricted T cells. Bone marrow derived DC were incubated in the presence of various concentrations of whole OVA protein and 25 uM DOTAP or DOTMA for 30 min at 37° C. or 4° C.
In order to verify that the cationic lipid facilitated uptake of antigen translates into enhanced antigen presentation on MHC class I (cross presentation), T cells from a TCR transgenic mouse (OT-1) were utilized in which all T cells are specific for an internal peptide of OVA. These T-cells will only proliferate if presented with DCs which have processed OVA and presented an OVA peptide on MHC class I molecules. Thus, this represents a stringent assay for cross-presentation. BMDC were incubated with different concentrations of the whole OVA protein in the presence or absence of two cationic lipids, either DOTAP or DOTMA for 1 hour at 37° C. The DCs were then washed, fixed and added to the OVA peptide specific T-cells. […] This response was dose dependent with respect to the OVA concentration, and was even apparent when DC were incubated with OVA at 4° C.

[2] = tested on: Bone marrow derived dendritic cells (BMDC); test: DQ-OVA uptake and processing by bone marrow derived dendritic cells (flow cytometry); format: cell-based, mouse; conditions: for uptake and processing of DQ-OVA by DC (fluorescence): 37° C., versus DQ-OVA in media alone
Description: FIG. 1 provides a graph showing that DOTAP enhancement of antigen processing is specific for dendritic cells. Bone marrow derived dendritic cells were incubated with DQ-OVA in the presence of various concentrations of DOTAP as shown. In addition, a mouse epithelial cell line, TC1, was treated in an identical fashion.
FIG. 2 provides fluorescence readings for receptor mediated uptake. R-DOTAP nanoparticles, but not MPL stimulate uptake and processing by DC within 10 minutes. Mouse bone marrow DC were incubated in the presence of fluorescent DQ-OVA for one hour at either 37° C. or 4° C./azide in the presence of 25 uM DOTAP nanoparticles, 10 ug/ml MPL or media alone, and analyzed by flow cytometry. On the presented density plot, the y-axis represents the amount of green fluorescence which results from uptake and processing of the protein, while the x-axis represents the amount of red fluorescence resulting from concentration in endosomal vesicles.
To determine the effects of cationic lipids on antigen uptake and processing by dendritic cells, a fluorescent ovalbumin protein called DQ-OVA was used. DQ-OVA is non-fluorescent when intact, but emits both red and green fluorescence when the protein is degraded. Dendritic cells were grown from mouse bone marrow by culturing for 8 days in GMCSF+IL-4 (hereafter referred to as BMDC). BMDC were incubated at 37° C. or 4° C. for 1 hour with DQ-OVA alone, or DQ-OVA mixed with different concentrations of the cationic lipid R-DOTAP. The cells were then washed, fixed, and stained with fluorescent antibodies to CD11c, a marker for dendritic cells. Cells were then analyzed on an LSRII flow cytometer in both red and green fluorescent channels.
To determine whether non-cationic lipid adjuvants could mediate the same effect as DOTAP, BMDC were incubated with DQ-OVA in media alone or with DOTAP as described for FIG. 1. In addition, BMDC were incubated under identical conditions with the potent lipid adjuvant […] (MPL).

[3] = tested on: HPV16-specific CD8+ T-cells; test: HPV16-specific CD8+ T-cell induction after vaccination, ELISPOT of splenocytes; format: in vivo, C57 black mice; conditions: given with KF18 HPV peptide, vaccinated Day 0 and Day 7, splenocytes Day 14, stimulated with RAHYNIVTF
From the text: Effect of HPV16-E7, R-DOTAP/HPV16-E7, S-DOTAP/HPV16-E7 and Alum/MPL/HPV16-E7 vaccination on HPV16-specific CD8+ T-cell induction by ELISpot. The HPV16 E7 peptide used in the vaccine (SEQ ID NO: 2) is labelled KF18.
C57 black mice were vaccinated with various formulations: • Group 1: KF18 HPV peptide • Group 2: KF18 HPV peptide+R-DOTAP liposomes • Group 3: KF18 HPV peptide+S-DOTAP liposomes • Group 4: KF18 peptide+MPL/Alum adjuvant • *For each of the groups above, the KF18 HPV peptide corresponds to Palmitoyl-KSS-[…] (SEQ ID NO: 2)
5 mice per group were injected with the various formulations. The mice were vaccinated on Day 0 and Day 7 and sacrificed on Day 14. The splenocytes were removed and ELISPOT studies performed. The splenocytes were stimulated with the peptide […] (SEQ ID NO: 3), the HPV16 CD8+ T-cell epitope peptide recognized by the C57 mice.

[4] = tested on: HPV16-positive TC-1 tumors; test: Regression of established TC-1 tumors, R- versus S-DOTAP, administered Day 6; format: in vivo, mice; conditions: 1×10E^5 TC-1 cells day 0, administered on Day 6
Description: Effect of R-DOTAP (solid squares), R-DOTAP/HPV16-E7 (clear squares) and S-DOTAP/HPV16-E7 (solid circles) vaccination on regression of established HPV16-positive TC-1 tumors. The HPV16 E7 peptide used in the vaccine (SEQ ID NO: 2) is labelled KF18. Tumor volumes were measured using calipers.
R-DOTAP only, R-DOTAP/HPV16 E7 (SEQ ID NO: 2) and S-DOTAP/HPV16 E7 (SEQ ID NO: 2) were administered on Day 6 after tumor implantation.

[5] = tested on: T regulatory cells (CD45+CD3+CD4+CD25+Foxp3+) in tumor; test: Regulatory T cell population within TC-1 tumors (flow cytometry); format: in vivo, C57 mice; conditions: Day 19, within 1 week of vaccination (Day 12)
Description: FIG. 6: provides a graph showing that R-DOTAP and R-DOTAP+antigen uniquely reduce the population of regulatory T cells within the tumors after vaccination. 1×10^5 cells implanted subcutaneously on the right side of the abdomen of female B6 mice on day 0 and were vaccinated on day 12 and on day 19 post Tumor implant. T regulatory cells (CD45+CD3+CD4+CD25+Foxp3+) cells infiltrated into tumors on day 19. The reduction is calculated as the ratio of total T reg cells in tumor/average T reg cell in tumor and normalized to T reg cells in naïve mouse. Data represents mean±SEM of 4-5 mice in each group. * Statistically significant R-DOTAP+antigen compared to all other groups (other than R-DOTAP only). P<0.01.
C57 mice were divided into the following groups of 8 mice per group: • Group 1: R-DOTAP+KF18 (SEQ ID NO: 2) • Group 2: GM-CSF+KF18 (SEQ ID NO: 2) • Group 3: R-DOTAP • Group 4: GM-CSF • Group 5: KF18 (SEQ ID NO: 2) • Group 6: Naïve mice (tumor bearing and untreated). • 1×10E^5 TC-1 tumor cells were injected into the flank of the mice on day 0. The various formulations were administered on Days 12 and 19 after tumor implantation. […]

[6] = tested on: CFSE labeled lymphocytes in popliteal LN; test: Lymph node homing of CFSE labeled adoptively transferred spleen cells, with or without pertussis toxin; format: in vivo, B6 mice; conditions: after 16 h
From the text: The primary objective of the current experiment was to understand if T-cell infiltration induced by R-DOTAP is chemokine dependent. We utilized 5 mice to perform the study, and visualized the homing of CFSE labeled adoptively transferred cells. The study included a population of cells that had been treated in vitro with pertussis toxin to inactivate chemokine receptors. Pertussis toxin-treated and untreated cells were labeled with two different concentrations of CFSE so that they could be distinguished by flow cytometry.
Spleen cells were prepared from a single B6 mouse and divided in half. Half of the cells were treated with Pertussis toxin 100 ng/ml for 1 hour at 37° C. and washed. The two cell populations were then labeled with CFSE at two different concentrations so they could be distinguished by flow cytometry, and mixed together. The mix (10e7 cells) was injected i.v. into the tail vein of 5 B6 mice. The mice were then anesthetized and injected in the footpad with either sucrose (right footpad) or R-DOTAP (left footpad, 50 ul, 600 nmoles).
After 16 h, the mice were sacrificed and the popliteal LN and spleens harvested. The total cells recovered from left and right nodes from each mouse were counted.

[7] = tested on: T-cells and total lymphocytes in popliteal lymph nodes; test: T-cell and lymphocyte infiltration into draining lymph nodes after foot pad injection; format: in vivo, mice
From the text: FIG. 10 provides a graph showing that R-DOTAP injection induces the migration of lymphocytes including T-lymphocytes into the draining lymph nodes. […] R-DOTAP injection is represented by striped bars, and the control is represented by shaded bars.
To better understand the ability of T-cell activating cationic lipids such as R-DOTAP to promote the induction of the effector CD8+ T-cells, which are also critical in altering the tumor's microenvironment, the impact of R-DOTAP vaccination on B and T-cells was studied. 12 mM R-DOTAP or sucrose as control were injected into the right and left foot pad respectively of mice and the influx of T-cells and total lymphocytes into the draining lymph nodes were quantified by flow cytometry. In this experiment, 15 hours after vaccination the popliteal lymph nodes were removed and analysis performed. […] Five mice were used per study.

[8] = tested on: HPV-positive TC-1 tumors; test: Regression of established TC-1 tumors, vaccination Days 12 and 19; format: in vivo, C57 mice
Description: Tumors were implanted on Day 0 and the mice vaccinated on Days 12 and 19. Tumor volumes were measured using calipers. The naïve mice group are tumor bearing mice that remained untreated. […] P<0.01.
C57 mice were divided into the following groups of 8 mice per group: • Group 1: R-DOTAP+KF18 (SEQ ID NO: 2) • Group 2: GM-CSF+KF18 (SEQ ID NO: 2) • Group 3: R-DOTAP • Group 4: GM-CSF • Group 5: KF18 (SEQ ID NO: 2) • Group 6: Naïve mice (tumor bearing and untreated). • 1×10E^5 TC-1 tumor cells were injected into the flank of the mice on day 0. The various formulations were administered on Days 12 and 19 after tumor implantation.
The third group of animals who were treated with either R-DOTAP alone or GM-CSF alone without antigen, or left untreated (Treg/CD8+ ratio >30) had tumor volumes of 300-700 mm^3.

CCCCCCCC/C=C\CCCCCCCC(=O)OCC(C[N+](C)(C)C)OC(=O)CCCCCCC/C=C\CCCCCCCC (stereo not shown) [DOTAP, 1,2-dioleoyl-3-trimethylammonium propane]
cross-presentation of OVA antigen by DC to CD8+ T cells [1]: much more efficiently
uptake of DQ-OVA by DC at 4° C. ([2]; BMDC with DQ-OVA, 1 hour, 4° C.): Significant uptake
uptake and processing of DQ-OVA by DC (fluorescence) ([2]; BMDC with DQ-OVA, 1 hour): significant increase of fluorescence
concentration showing the greatest effect on DQ-OVA uptake ([2]; concentration dependent effect in BMDC): 50 µM

CCCCCCCC/C=C\CCCCCCCC(=O)OCC(C[N+](C)(C)C)OC(=O)CCCCCCC/C=C\CCCCCCCC (stereo not shown) [S-DOTAP, 1,2-dioleoyl-3-trimethylammonium propane]
HPV-specific CD8+ T-cell response (ELISPOT) [3]: did not result in an enhanced CD8+ T-cell response beyond what was seen with the peptide alone
uptake and processing of DQ-OVA by DC (fluorescence) ([2]; BMDC with DQ-OVA, 1 hour): no difference

Monophorphoryl lipid-A [MPL, reference compound]
HPV-specific CD8+ T-cell response (ELISPOT) [3]: significantly lower CD8+ T-cell response compared to R-DOTAP
uptake and processing of DQ-OVA by DC (fluorescence) ([2]; BMDC with DQ-OVA, 1 hour): no such enhancement

CCCCCCCC/C=C\CCCCCCCC(=O)OCC(C[N+](C)(C)C)OC(=O)CCCCCCC/C=C\CCCCCCCC (stereo not shown) [R-DOTAP, 1,2-dioleoyl-3-trimethylammonium propane]
anti-tumor effect on established TC-1 tumors [4]: lack of regression or inhibition of growth
reduction in the Treg population within the tumors [5]: about 20%
infiltration of pertussis toxin treated CFSE labeled cells into the lymph node ([6]; cells treated with Pertussis toxin 100 ng/ml): did not occur
infiltration of transferred CFSE labeled lymphocytes into the lymph node ([6]; untreated cells, footpad 50 ul, 600 nmoles): infiltrated the lymph node
HPV-specific CD8+ T-cell response (ELISPOT) [3]: effective in inducing strong HPV-specific CD8+ T-cell responses
time within which uptake and processing by DC is stimulated ([2]; 25 uM DOTAP nanoparticles, FIG. 2 legend): ≤ 10 min
uptake and processing of DQ-OVA by DC (fluorescence) ([2]; BMDC with DQ-OVA, 1 hour): greatly enhanced
infiltration of T-cells into the draining lymph node ([7]; 12 mM, foot pad, 15 hours after vaccination, sucrose as control): significant infiltration of T-cells into the lymph node
lymphocyte infiltration into the lymph nodes over time ([7]; 5 hours, 16 hours, 3 days and 4 days): increase over the 4-day period

Palmitoyl-KSS-GQAEPDRAHYNIVTF (Palmitoyl-KSSGQAEPDRAHYNIVTF) [KF18]
tumor volume ([8]; vaccinated Days 12 and 19, Day 26): about 200 mm^3
tumor regression / elimination ([8]; vaccinated Days 12 and 19, by Day 26): did not induce any tumor regression but rather inhibited tumor growth
